Structures are written as SMILES.

The values that follow come from patent US8889670B2, “Heterocyclic compounds which modulate the CB2 receptor” (Boehringer Ingelheim International GmbH, priority 2009, dated 2014).

In one assay the target is T1, human CB2R (Homo sapiens, UniProt P34972).
T1 construct: host or cells: CHO cells
T1 sequence (P34972 whole entry): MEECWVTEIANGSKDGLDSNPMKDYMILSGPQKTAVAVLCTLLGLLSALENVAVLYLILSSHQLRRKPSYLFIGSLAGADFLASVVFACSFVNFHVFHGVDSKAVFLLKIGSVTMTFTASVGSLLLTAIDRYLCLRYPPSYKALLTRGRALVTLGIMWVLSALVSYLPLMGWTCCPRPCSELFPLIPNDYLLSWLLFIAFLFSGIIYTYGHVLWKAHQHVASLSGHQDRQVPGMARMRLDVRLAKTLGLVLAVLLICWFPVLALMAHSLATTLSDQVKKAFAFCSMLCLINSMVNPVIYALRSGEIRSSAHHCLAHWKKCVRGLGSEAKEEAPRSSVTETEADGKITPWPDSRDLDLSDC
In words: CB2R mediated modulation of cAMP synthesis (forskolin-stimulated cAMP, CHO cells expressing human CB2R). It is filed as cell-based.
Conditions: not given
As for the experimental part: B. CB2R Mediated Modulation of cAMP Synthesis:
Compounds of the invention were evaluated for their CB2 agonist or inverse agonistic activity in accordance with the following experimental method.
CHO cells expressing human CB2R (Euroscreen) were plated at a density of 5000 cells per well in 384 well plates and incubated overnight at 37° C. After removing the media, the cells were treated with test compounds diluted in stimulation buffer containing 1 mM IBMX, 0.25% BSA and 10 uM Forskolin. The assay was incubated for 30 minutes at 37° C. Cells were lysed and the cAMP concentration was measured using DiscoverX-XS cAMP kit, following the manufacturer's protocol. In this setting, agonists will decrease forskolin induced production of cAMP while inverse agonists will further increase forskolin induced production of cAMP. EC50 of agonists were calculated as follows. The maximal amount of cAMP produced by forskolin compared to the level of cAMP inhibited by 1 uM CP55940 is defined as 100%. […] Data was analyzed using a four-parameter logistic model. (Model 205 of XLfit 4.0).
What is called EC50 is the concentration needed to bring the measured effect to its halfway point. In the case of `O=C(Nc1nc(-c2ccc(F)cc2)cs1)[C@@H]1CCCCN1C(=O)N1CCS(=O)(=O)CC1` [(S)-1-(1,1-Dioxo-1λ^6-thiomorpholine-4-carbonyl)-piperidine-2-carboxylic acid [4-(4-fluoro-phenyl)-thiazol-2-yl]-amide], the EC50 was 38 nM.

With `CC(C)(C)c1cc(NC(=O)[C@@H]2CCCCN2c2ncc(C(F)(F)F)cc2Cl)no1` [(S)-3′-Chloro-5′-trifluoromethyl-3,4,5,6-tetrahydro-2H-[1,2′]bipyridinyl-2-carboxylic acid (5-tert-butyl-isoxazol-3-yl)-amide], the EC50 amounted to 0.18 nM.

Regarding `CC(C)(C)c1csc(NC(=O)[C@@H]2CCCCN2CC2CCOCC2)n1` [(S)-1-(Tetrahydro-pyran-4-ylmethyl)-piperidine-2-carboxylic acid (4-tert-butyl-thiazol-2-yl)-amide], the half-maximal effective concentration (EC50) amounted to 13 nM.

With `CC(C)(C)c1cc(NC(=O)[C@@H]2CCCN(c3ncc(C(F)(F)F)cc3Cl)C2)no1` [(R)-3′-Chloro-5′-trifluoromethyl-3,4,5,6-tetrahydro-2H-[1,2′]bipyridinyl-3-carboxylic acid (5-tert-butyl-isoxazol-3-yl)-amide], it took 54 nM to reach a half-maximal effect (EC50).

`CC(C)(C)c1cc(NC(=O)[C@@H]2CCCN(C(=O)C3CCC(F)(F)CC3)C2)no1` [(R)-1-(4,4-Difluoro-cyclohexanecarbonyl)-piperidine-3-carboxylic acid (5-tert-butyl-isoxazol-3-yl)-amide] gave an EC50 of 42 nM.

`CC(C)(C)c1cc(NC(=O)[C@@H]2CCCCN2C(=O)C[C@H]2CCCO2)no1` [(S)-1-((R)-2-Tetrahydro-furan-2-yl-acetyl)-piperidine-2-carboxylic acid (5-tert-butyl-isoxazol-3-yl)-amide] displayed an EC50 of 94 nM.

As for `CC(C)(C)c1cc(NC(=O)[C@@H]2CCCCCN2c2ccc(Cl)cc2)no1` [(S)-1-(4-Chloro-phenyl)-azepane-2-carboxylic acid (5-tert-butyl-isoxazol-3-yl)-amide], it took 0.4 nM to reach a half-maximal effect (EC50).

`CC(C)(C)c1cc(NC(=O)[C@@H]2C[C@@H](O)CCN2c2ncc(C(F)(F)F)cc2Cl)no1` [(2S,4S)-3′-Chloro-4-hydroxy-5′-trifluoromethyl-3,4,5,6-tetrahydro-2H-[1,2′]bipyridinyl-2-carboxylic acid (5-tert-butyl-isoxazol-3-yl)-amide] gave a 50% effective concentration (EC50) of 0.3 nM.

Consider `COc1ccc(S(=O)(=O)N2CCCC[C@H]2C(=O)Nc2cc(C(C)(C)C)on2)cc1` [(S)-1-(4-Methoxy-benzenesulfonyl)-piperidine-2-carboxylic acid (5-tert-butyl-isoxazol-3-yl)-amide], for which it took 27 nM to reach a half-maximal effect (EC50).

For `CC(C)(C)c1cc(NC(=O)[C@@H]2CCCCN2C(=O)c2ccc(F)cc2)no1` [(S)-1-(4-Fluoro-benzoyl)-piperidine-2-carboxylic acid (5-tert-butyl-isoxazol-3-yl)-amide], the EC50 is 2.2 nM.

Regarding `CC(C)(C)c1cc(NC(=O)[C@@H]2CCCCCN2C(=O)N2CCS(=O)(=O)CC2)no1` [(S)-1-(1,1-Dioxo-1λ^6-thiomorpholine-4-carbonyl)-azepane-2-carboxylic acid (5-tert-butyl-isoxazol-3-yl)-amide], a half-maximal effect (EC50) was put at 15 nM.

Compound `CC(C)(C)c1cc(NC(=O)C2CCCN(C(=O)C3CCC(F)(F)CC3)C2)no1` (stereo not drawn) [1-(4,4-Difluoro-cyclohexanecarbonyl)-piperidine-3-carboxylic acid (5-tert-butyl-isoxazol-3-yl)-amide] had a concentration for a half-maximal effect (EC50) of 23 nM.

Compound `CC(C)(C)c1cc(NC(=O)[C@@H]2CCCCN2C(=O)C(F)(F)F)no1` [(S)-1-(2,2,2-Trifluoro-acetyl)-piperidine-2-carboxylic acid (5-tert-butyl-isoxazol-3-yl)-amide] showed a concentration for a half-maximal effect (EC50) of 48 nM.

For `CC(C)(C)c1cc(NC(=O)[C@@H]2CCCCCN2CC2CCOCC2)no1` [(S)-1-(Tetrahydro-pyran-4-ylmethyl)-azepane-2-carboxylic acid (5-tert-butyl-isoxazol-3-yl)-amide], the 50% effective concentration (EC50) amounted to 0.03 nM.

`O=C(Nc1ccc(C(F)(F)F)cn1)[C@@H]1CCCCN1CC1CCOCC1` [(S)-1-(Tetrahydro-pyran-4-ylmethyl)-piperidine-2-carboxylic acid (5-trifluoromethyl-pyridin-2-yl)-amide]: a half-maximal effect (EC50) was put at 69 nM.

`O=C(Nc1nc2cc(F)ccc2s1)[C@@H]1CCCCN1C(=O)N1CCS(=O)(=O)CC1` [(S)-1-(1,1-Dioxo-1λ^6-thiomorpholine-4-carbonyl)-piperidine-2-carboxylic acid (5-fluoro-benzothiazol-2-yl)-amide] returned a concentration for a half-maximal effect (EC50) of 56 nM.

With `CC(C)(C)c1cc(NC(=O)[C@@H]2CCCCN2C(=O)CN2CCC(F)(F)CC2)no1` [(S)-1-[2-(4,4-Difluoro-piperidin-1-yl)-acetyl]-piperidine-2-carboxylic acid (5-tert-butyl-isoxazol-3-yl)-amide], the EC50 amounted to 34 nM.

For the compound `CC(C)(C)c1cc(NC(=O)[C@H]2CCCN(C(=O)C3CCC(F)(F)CC3)C2)no1` [(S)-1-(4,4-Difluoro-cyclohexanecarbonyl)-piperidine-3-carboxylic acid (5-tert-butyl-isoxazol-3-yl)-amide], a half-maximal effect (EC50) was put at 119 nM.

For `CC(C)(C)c1cc(NC(=O)[C@@H]2CCCCN2C(=O)C2CCCC2)no1` [(S)-1-Cyclopentanecarbonyl-piperidine-2-carboxylic acid (5-tert-butyl-isoxazol-3-yl)-amide], a half-maximal response (EC50) required 14 nM.

For the compound `CC(C)(C)c1cc(NC(=O)[C@@H]2CCCCN2C(=O)N2CCC(F)(F)CC2)no1` [(S)-1-(4,4-Difluoro-piperidine-1-carbonyl)-piperidine-2-carboxylic acid (5-tert-butyl-isoxazol-3-yl)-amide], the response was half-maximal at 3.7 nM (EC50).

The compound `O=C(Nc1nc2cc(Cl)ccc2s1)[C@@H]1CCCCN1CC1CCOCC1` [(S)-1-(Tetrahydro-pyran-4-ylmethyl)-piperidine-2-carboxylic acid (5-chloro-benzothiazol-2-yl)-amide] came in with a 50% effective concentration (EC50) of 0.2 nM.

`CC(C)(C)c1cc(NC(=O)[C@@H]2CCCCN2C(=O)C2CCC(F)(F)CC2)on1` [(S)-1-(4,4-Difluoro-cyclohexanecarbonyl)-piperidine-2-carboxylic acid (3-tert-butyl-isoxazol-5-yl)-amide] returned an EC50 of 1 nM.

Take `CC(C)(C)c1cc(NC(=O)[C@@H]2CCCCN2C(=O)CN2CCC(F)CC2)no1` [(S)-1-[2-(4-Fluoro-piperidin-1-yl)-acetyl]-piperidine-2-carboxylic acid (5-tert-butyl-isoxazol-3-yl)-amide]: the EC50 was 75 nM.

In turn, `CC(C)(C)c1cc(NC(=O)C2CCCN(c3ncc(C(F)(F)F)cc3Cl)C2)no1` (stereo not drawn) [3′-Chloro-5′-trifluoromethyl-3,4,5,6-tetrahydro-2H-[1,2′]bipyridinyl-3-carboxylic acid (5-tert-butyl-isoxazol-3-yl)-amide] yielded an EC50 of 113 nM.

Compound `O=C(Nc1cc(C2CCCCC2)no1)[C@@H]1CCCCN1C(=O)N1CCS(=O)(=O)CC1` [(S)-1-(1,1-Dioxo-1λ^6-thiomorpholine-4-carbonyl)-piperidine-2-carboxylic acid (3-cyclohexyl-isoxazol-5-yl)-amide] showed an EC50 of 59 nM.

Staying with this assay, now noted: agonist EC50, inhibition of forskolin-stimulated cAMP synthesis; CHO cells expressing human CB2R; mean; read-out: CB2 CAMP @ EC50 nM (mean).
On to `O=C(Nc1ccc(C(F)(F)F)cn1)[C@@H]1CCCCN1C(=O)C1CCC(F)(F)CC1` [(S)-1-(4,4-Difluoro-cyclohexanecarbonyl)-piperidine-2-carboxylic acid (5-trifluoromethyl-pyridin-2-yl)-amide], for which the 50% effective concentration (EC50) is 282 nM.

As for `CCn1nc(NC(=O)[C@@H]2CCCCN2C(=O)CN2CCC(F)(F)C2)nc1-c1ccccc1` [(S)-1-[2-(3,3-Difluoro-pyrrolidin-1-yl)-acetyl]-piperidine-2-carboxylic acid (1-ethyl-5-phenyl-1H-1,2,4-triazol-3-yl)-amide], the half-maximal effective concentration (EC50) is 262 nM.

As for `CCn1nc(NC(=O)[C@@H]2CCCCN2C(=O)CC2CCS(=O)(=O)C2)nc1-c1ccccc1` (stereo partly drawn) [(S)-1-[2-(1,1-Dioxo-tetrahydro-1λ^6-thiophen-3-yl)-acetyl]-piperidine-2-carboxylic acid (1-ethyl-5-phenyl-1H-1,2,4-triazol-3-yl)-amide], the EC50 amounted to 365 nM.

For `CCc1sc(NC(=O)[C@@H]2CCCCN2CC2CCOCC2)nc1-c1ccccc1` [(S)-1-(Tetrahydro-pyran-4-ylmethyl)-piperidine-2-carboxylic acid (5-ethyl-4-phenyl-thiazol-2-yl)-amide], the EC50 was determined as 0.55 nM.

As for `CC(C)(C)c1cc(NC(=O)C2CCCCN2C(=O)c2ccc(C(F)(F)F)cc2)no1` (stereo not drawn) [1-(4-Trifluoromethyl-benzoyl)-piperidine-2-carboxylic acid (5-tert-butyl-isoxazol-3-yl)-amide], the EC50 was found to be 395 nM.

In the case of `O=C(Nc1cc(C(F)(F)F)ccn1)[C@@H]1CCCCN1CC1CCOCC1` [(S)-1-(Tetrahydro-pyran-4-ylmethyl)-piperidine-2-carboxylic acid (4-trifluoromethyl-pyridin-2-yl)-amide], the concentration for a half-maximal effect (EC50) amounted to 290 nM.

Regarding `CC(C)(C)c1nnc(NC(=O)[C@@H]2CCCCN2C2CC2)s1` [(S)-1-Cyclopropyl-piperidine-2-carboxylic acid (5-tert-butyl-1,3,4-thiadiazol-2-yl)-amide], the EC50 is 485 nM.

`CC(C)(C)c1cc(NC(=O)[C@@H]2CCCCN2C(=O)CN2CCOCC2)no1` [(S)-1-(2-Morpholin-4-yl-acetyl)-piperidine-2-carboxylic acid (5-tert-butyl-isoxazol-3-yl)-amide]: the EC50 came to 188 nM.
